In publication PMC11079024, “Identification of a family of species-selective complex I inhibitors as potential anthelmintics” (Nature Communications, 2024):
“And” between values parts separate entries of the source, which are not always exact repeats. Identical values can stand only once. Like-named read-outs stand apart in the source and are kept apart here.

Target: C. elegans (N2) complex I (NADH:ubiquinone oxidoreductase) (Caenorhabditis elegans, UniProt P24887+Q93873+Q94360)
Assay: biochemical
Assay type: biochemical
In short: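 Compounds were tested against freeze-thawed isolated mitochondria (0.2 mg/mL protein). NADH:decylubiquinone activity was monitored via DCIP absorbance at 600 nm, and the initial linear slope was normalised to solvent controls.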

[1] = wild-type C. elegans, mean of replicates, read-out: in vitro complex I activity relative to solvent control, Mean
[2] = wild-type C. elegans, single replicate, read-out: in vitro complex I activity relative to solvent control, individual replicate

Chain of C. elegans (N2) complex I (NADH:ubiquinone oxidoreductase) (Q94360 17-199): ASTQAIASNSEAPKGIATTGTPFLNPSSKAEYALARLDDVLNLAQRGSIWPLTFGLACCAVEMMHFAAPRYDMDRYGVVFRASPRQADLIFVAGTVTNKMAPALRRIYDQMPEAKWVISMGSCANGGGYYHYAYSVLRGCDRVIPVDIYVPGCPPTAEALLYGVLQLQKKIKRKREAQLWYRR
Chain of C. elegans (N2) complex I (NADH:ubiquinone oxidoreductase) (P24887 whole entry): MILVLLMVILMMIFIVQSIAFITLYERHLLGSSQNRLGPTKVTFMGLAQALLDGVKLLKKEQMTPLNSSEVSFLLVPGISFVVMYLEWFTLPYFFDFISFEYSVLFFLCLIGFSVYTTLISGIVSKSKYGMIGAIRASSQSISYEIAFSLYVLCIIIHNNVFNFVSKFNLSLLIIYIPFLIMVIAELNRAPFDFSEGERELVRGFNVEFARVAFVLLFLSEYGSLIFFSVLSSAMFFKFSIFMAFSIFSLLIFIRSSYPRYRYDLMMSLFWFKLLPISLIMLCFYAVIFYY
Chain of C. elegans (N2) complex I (NADH:ubiquinone oxidoreductase) (Q93873 31-482): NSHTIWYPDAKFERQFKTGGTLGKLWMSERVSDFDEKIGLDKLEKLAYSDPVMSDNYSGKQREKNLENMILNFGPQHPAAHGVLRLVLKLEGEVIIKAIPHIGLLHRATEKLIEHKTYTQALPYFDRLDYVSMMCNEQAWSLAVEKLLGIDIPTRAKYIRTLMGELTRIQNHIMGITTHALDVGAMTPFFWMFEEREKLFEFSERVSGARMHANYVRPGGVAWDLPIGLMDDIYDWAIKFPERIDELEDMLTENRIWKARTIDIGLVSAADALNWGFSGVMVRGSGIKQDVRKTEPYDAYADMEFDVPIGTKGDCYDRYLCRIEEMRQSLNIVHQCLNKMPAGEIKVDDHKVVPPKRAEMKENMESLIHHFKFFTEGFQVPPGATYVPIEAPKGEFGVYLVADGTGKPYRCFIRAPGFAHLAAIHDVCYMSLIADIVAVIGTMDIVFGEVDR

COC(=O)Nc1nc2ccc(C(=O)c3ccccc3)cc2[nH]1 [mebendazole, reference compound]
remaining activity at 0.125 µM (0.125 µM, wild-type C. elegans mitochondria, mean of replicates, read-out: percent (%) in vitro complex I activity relative to solvent control): 104% | percent (%) in vitro complex I activity relative to solvent control (0.125 µM, wild-type C. elegans mitochondria, single replicate): 95.514% and 94.187% and 106.525% and 121.019% | remaining activity at 0.313 µM (0.313 µM, wild-type C. elegans mitochondria, mean of replicates, read-out: percent (%) in vitro complex I activity relative to solvent control): 102% | percent (%) in vitro complex I activity relative to solvent control (0.313 µM, wild-type C. elegans mitochondria, single replicate): 96.314% and 108.975% and 110.715% | remaining activity at 0.313 µM (0.313 µM, wild-type C. elegans mitochondria, single replicate, read-out: percent (%) in vitro complex I activity relative to solvent control): 92.7% | remaining activity at 0.625 µM (0.625 µM, wild-type C. elegans mitochondria, mean of replicates, read-out: percent (%) in vitro complex I activity relative to solvent control): 105% | percent (%) in vitro complex I activity relative to solvent control (0.625 µM, wild-type C. elegans mitochondria, single replicate): 110.023% and 108.944% | remaining activity at 0.625 µM (0.625 µM, wild-type C. elegans mitochondria, single replicate, read-out: percent (%) in vitro complex I activity relative to solvent control): 100% | remaining activity at 1.5 µM (1.5 µM, wild-type C. elegans mitochondria, mean of replicates, read-out: percent (%) in vitro complex I activity relative to solvent control): 101% | percent (%) in vitro complex I activity relative to solvent control (1.5 µM, wild-type C. elegans mitochondria, single replicate): 91.749% and 101.813% and 107.753% | remaining activity at 1.5 µM (1.5 µM, wild-type C. elegans mitochondria, single replicate, read-out: percent (%) in vitro complex I activity relative to solvent control): 101% | remaining activity at 3 µM (3 µM, wild-type C. elegans mitochondria, mean of replicates, read-out: percent (%) in vitro complex I activity relative to solvent control): 104% | percent (%) in vitro complex I activity relative to solvent control (3 µM, wild-type C. elegans mitochondria, single replicate): 97.513% and 112.361% and 102.837% | remaining activity at 3 µM (3 µM, wild-type C. elegans mitochondria, single replicate, read-out: percent (%) in vitro complex I activity relative to solvent control): 104% | remaining activity at 15 µM (15 µM, wild-type C. elegans mitochondria, mean of replicates, read-out: percent (%) in vitro complex I activity relative to solvent control): 102% | percent (%) in vitro complex I activity relative to solvent control (15 µM, wild-type C. elegans mitochondria, single replicate): 94.944% and 106.604% and 105.394% | remaining activity at 15 µM (15 µM, wild-type C. elegans mitochondria, single replicate, read-out: percent (%) in vitro complex I activity relative to solvent control): 102% | remaining activity at 37.5 µM (37.5 µM, wild-type C. elegans mitochondria, mean of replicates, read-out: percent (%) in vitro complex I activity relative to solvent control): 97.7% | percent (%) in vitro complex I activity relative to solvent control (37.5 µM, wild-type C. elegans mitochondria, single replicate): 90.732% and 104.066% and 100.084% | remaining activity at 37.5 µM (37.5 µM, wild-type C. elegans mitochondria, single replicate, read-out: percent (%) in vitro complex I activity relative to solvent control): 95.9% | remaining activity at 75 µM (75 µM, wild-type C. elegans mitochondria, mean of replicates, read-out: percent (%) in vitro complex I activity relative to solvent control): 91.3% | percent (%) in vitro complex I activity relative to solvent control (75 µM, wild-type C. elegans mitochondria, single replicate): 90.802% and 93.867% and 91.631% | remaining activity at 75 µM (75 µM, wild-type C. elegans mitochondria, single replicate, read-out: percent (%) in vitro complex I activity relative to solvent control): 88.8%

CC(C)(C)c1ccc(CCOc2ncnc3ccccc23)cc1 [Fenazaquin, reference compound]
remaining activity at 0.0001 µM (dose 0.0001 µM, wild-type C. elegans, mean of replicates, read-out: in vitro complex I activity relative to solvent control, Mean): 94.3% | remaining activity at 0.0005 µM (dose 0.0005 µM, wild-type C. elegans, mean of replicates, read-out: in vitro complex I activity relative to solvent control, Mean): 89.7% | remaining activity at 0.001 µM [1]: 82.5% | remaining activity at 0.001 µM [2]: 80.4% | remaining activity at 0.0025 µM [1]: 63.3% | remaining activity at 0.0025 µM [2]: 63.7% | remaining activity at 0.005 µM [1]: 42.1% | remaining activity at 0.005 µM [2]: 42.3% | remaining activity at 0.013 µM [1]: 24% | remaining activity at 0.013 µM [2]: 25.6% | remaining activity at 0.025 µM (dose 0.025 µM, wild-type C. elegans, mean of replicates, read-out: in vitro complex I activity relative to solvent control, Mean): 12.5% | remaining activity at 0.063 µM (dose 0.063 µM, wild-type C. elegans, mean of replicates, read-out: in vitro complex I activity relative to solvent control, Mean): 5.41% | remaining activity at 0.125 µM (dose 0.125 µM, wild-type C. elegans, mean of replicates, read-out: in vitro complex I activity relative to solvent control, Mean): 2.53% | remaining activity at 0.313 µM (dose 0.313 µM, wild-type C. elegans, mean of replicates, read-out: in vitro complex I activity relative to solvent control, Mean): 1.71% | remaining activity at 0.625 µM (dose 0.625 µM, wild-type C. elegans, mean of replicates, read-out: in vitro complex I activity relative to solvent control, Mean): 2.18% | remaining activity at 1.5 µM (dose 1.5 µM, wild-type C. elegans, mean of replicates, read-out: in vitro complex I activity relative to solvent control, Mean): 1.91% | remaining activity at 3 µM (dose 3 µM, wild-type C. elegans, mean of replicates, read-out: in vitro complex I activity relative to solvent control, Mean): 1.48% | remaining activity at 15 µM (dose 15 µM, wild-type C. elegans, mean of replicates, read-out: in vitro complex I activity relative to solvent control, Mean): 1.53% | remaining activity at 37.5 µM (dose 37.5 µM, wild-type C. elegans, mean of replicates, read-out: in vitro complex I activity relative to solvent control, Mean): 1.86% | remaining activity at 75 µM (dose 75 µM, wild-type C. elegans, mean of replicates, read-out: in vitro complex I activity relative to solvent control, Mean): 3.14% | IC50 (wild-type (N2) mitochondria, read-out: C. elegans Complex I IC50): 4.2 nM
